The target in this assay is T1, Short transient receptor potential channel 6 (Homo sapiens, UniProt Q9Y210).
T1 sequence (Q9Y210 whole entry): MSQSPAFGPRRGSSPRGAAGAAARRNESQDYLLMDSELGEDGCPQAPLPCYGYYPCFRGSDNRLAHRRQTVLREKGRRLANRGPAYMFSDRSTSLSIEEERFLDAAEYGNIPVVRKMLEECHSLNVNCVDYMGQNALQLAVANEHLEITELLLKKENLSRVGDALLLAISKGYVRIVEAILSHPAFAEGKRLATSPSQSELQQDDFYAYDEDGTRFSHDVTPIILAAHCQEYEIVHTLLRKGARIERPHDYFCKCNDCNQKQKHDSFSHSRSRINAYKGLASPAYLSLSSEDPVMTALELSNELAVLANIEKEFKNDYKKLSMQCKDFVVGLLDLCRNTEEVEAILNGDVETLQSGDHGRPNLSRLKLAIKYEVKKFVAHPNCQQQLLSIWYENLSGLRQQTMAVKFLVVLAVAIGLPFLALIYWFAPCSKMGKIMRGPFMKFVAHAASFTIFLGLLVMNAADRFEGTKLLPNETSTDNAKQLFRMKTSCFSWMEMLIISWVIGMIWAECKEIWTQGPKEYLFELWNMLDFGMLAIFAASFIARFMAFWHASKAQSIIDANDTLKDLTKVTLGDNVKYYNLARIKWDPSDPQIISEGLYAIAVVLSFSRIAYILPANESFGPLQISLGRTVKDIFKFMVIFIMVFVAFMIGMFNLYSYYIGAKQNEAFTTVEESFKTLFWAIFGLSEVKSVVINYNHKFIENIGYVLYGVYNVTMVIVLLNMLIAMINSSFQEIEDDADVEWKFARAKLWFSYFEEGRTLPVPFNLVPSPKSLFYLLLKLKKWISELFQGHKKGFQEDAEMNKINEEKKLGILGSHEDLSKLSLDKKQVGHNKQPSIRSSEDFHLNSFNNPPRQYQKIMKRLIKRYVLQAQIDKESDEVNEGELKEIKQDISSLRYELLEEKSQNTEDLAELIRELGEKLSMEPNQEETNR
In words: High Throughput Screening Assay: This screening assay measures TRPC6 (transient receptor potential cation channel, subfamily C, member 6) ion channel activation via addition either of the commercially available DAG ligand analogue OAG (1-oleoyl-2-acetyl-sn-glycerol) or of the TRPC6 agonist 1-[1-(4,5,6,7,8-pentahydrocyclohepta[2,1-d]thiophen-2-ylcarbonyl)-4-piperidyl]-3-hydrobenzimidazol-2-one (GSK1702934A). The assay utilizes a FLIPR fluorescent calcium sensor 4-(6-Acetoxymethoxy-2,7-difluoro-3-oxo-9-xanthenyl)-4′-methyl-2,2′-(ethylenedioxy)dianiline-N,N,N′,N′-tetraacetic acid tetrakis(acetoxymethyl) ester (Fluo4/AM) […]. Changes (increases) in intracellular membrane calcium concentration potential as measured by the fluorescent signal increase during membrane depolarization provide a measurement of channel activity.The commercially available HEK293/TREx line (Invitrogen) was stably transfected with a TRPC6 construct and screened by conventional calcium imaging to find clones with TRPC6 expression following stimulation with 1 μg/ml tetracycline. These cells were maintained in the growth medium recommended by the manufacturer supplemented with 100 μg/ml hygromycin to promote retention of the TRPC6 construct. […]. The assay is classed as […].

Our source for the IC50 values is ChEMBL document CHEMBL5728023, “Inhibitors of TRPC6” (2020).

Structures are written as SMILES.

For `CCOc1cc(C(=O)N2C3CCC2CC(c2ccc(N)nn2)C3)ncc1Oc1ccc(F)cc1` (stereo unspecified), the IC50 came to 2100 nM.

As a reminder, the IC50 is the concentration at which inhibition is half-maximal.
